# Measurements as given in US7999137B2, “Pesticide bi-phenyl-amidine derivatives” (Bayer Cropscience AG, priority 2006, dated 2011).
# Read-outs that look alike come from different tables or passages of the source.
# Assay: logP by HPLC on reversed-phase column (C 18), EEC Directive 79/831 Annex V.A8
# Assay type: physicochemical
# Details: 40° C., 0.1% aqueous formic acid and acetonitrile; for chromatographic logP: reversed-phase HPLC column (C 18)
# Experimental: Temperature: 40° C.; Mobile phases: 0.1% aqueous formic acid and acetonitrile; linear gradient from 10% acetonitrile to 90% acetonitrile.
# Calibration was carried out using unbranched alkan-2-ones (comprising 3 to 16 carbon atoms) with known logP values (determination of the logP values by the retention times using linear interpolation between two successive alkanones).
# [1] = HPLC reversed-phase C 18, linear gradient 10% to 90% acetonitrile
# [2] = pH 2.3, HPLC, read-out: log P (pH 2.3)
SMILES,log p (HCOOH) [1],further results
CCc1cc(-c2ccc(C(F)(F)F)cc2)ccc1N=CN(C)CC [Compound 27],2.20,–
CCN(C)C=Nc1ccc(-c2ccc(Cl)c(C(F)(F)F)c2)cc1F [Compound 20],2.15,–
CCN(C)C=Nc1cc(C)c(-c2ccc(C(C)=NOC)cc2)cc1C [Compound 42],2.24,–
CCN(C)C=Nc1ccc(-c2ccc(OC)cc2)cc1Cl [Compound 70],1.71,–
CCN(C)C=Nc1cc(C)c(-c2ccc(Cl)c(Cl)c2)cc1C [Compound 44],2.27,–
CCN(C)C=Nc1ccc(-c2ccc(OC)c(OC)c2OC)cc1F [Compound 12],1.50,–
CCN(C)C=Nc1ccc(-c2ccc(F)cc2)cc1Cl [Compound 13],1.69,–
CCN(C)C=Nc1ccc(-c2ccc(COC)cc2)cc1Cl [Compound 73],1.65,–
CCc1cc(-c2ccc(F)cc2)ccc1N=CN(C)CC [Compound 23],1.79,–
CCc1cc(-c2ccc(Cl)c(F)c2)ccc1N=CN(C)CC [Compound 52],2.31,–
"CCN(C)/C=N/c1cc(C)c(-c2ccc(C(C)(C)C)cc2)cc1C [Compound 8, N′-(4′-tert-butyl-2,5-dimethylbiphenyl-4-yl)-N-ethyl-N-methylimidoformamide]",–,"chromatographic logP (HPLC reversed-phase C 18, linear gradient 10% to 90% acetonitrile, read-out: log p (HCOOH)): 2.67; chromatographic logP [2]: 2.67"
CCN(C)C=Nc1ccc(-c2ccc(F)c(C)c2)cc1C [Compound 33],2.04,–
CCN(C)C=Nc1ccc(-c2ccc(OC)c(OC)c2)cc1C(F)(F)F [Compound 94],1.71,–
CCN(C)C=Nc1ccc(-c2ccc(Oc3ccccc3)cc2)cc1F [Compound 90],2.20,–
"CCN(C)/C=N/c1cc(C)c(Br)cc1C [Intermediate (Va-1), N′-(4-bromo-2,5-dimethylphenyl)-N-ethyl-N-methylimidoformamide]",–,chromatographic logP [2]: 1.36
CCN(C)C=Nc1ccc(-c2ccc(Cl)c(Cl)c2)cc1C(F)(F)F [Compound 81],2.57,–
CCc1cc(-c2cc(OC)c(OC)c(OC)c2)ccc1N=CN(C)CC [Compound 50],1.69,–

# More lines, main results first:
log p (HCOOH) [1],SMILES,further results
2.60,Cc1cc(-c2ccc(C(C)C)cc2)c(C)cc1N=CN1CCCCC1 [Compound 158],–
2.70,CCCN(C)C=Nc1cc(C)c(-c2ccc(C(C)C)cc2)cc1C [Compound 156],–
1.76,CCN(C)C=Nc1cc(C)c(-c2ccc(S(=O)(=O)N(C)C)cc2)cc1C [Compound 173],–
2.62,CCN(C)C=Nc1cc(C)c(-c2ccc(OC(C)C)c(Cl)c2)cc1C [Compound 171],–
2.13,CCN(C)C=Nc1ccc(-c2ccc(Cl)c(C)c2)cc1Cl [Compound 110],–
2.84,CCN(C)C=Nc1cc(C)c(-c2ccc(CC(C)C)cc2)cc1C [Compound 162],–
2.38,CCN(C)C=Nc1cc(C)c(-c2ccc(C(C)(CC)OC)cc2)cc1C (centres unmarked) [Compound 159],–
2.77,CCN(C)C(C)=Nc1cc(C)c(-c2ccc(C(C)(C)C)cc2)cc1C [Compound 176],–
3.10,CCCN(C)C=Nc1cc(C)c(-c2ccc([Si](C)(C)C)cc2)cc1C [Compound 152],–
1.77,CCN(C)C=Nc1cc(C)c(-c2ccccc2)cc1C [Compound 134],–
2.79,Cc1cc(-c2ccc(C(C)(C)C)cc2)c(C)cc1N=CN1CCCC1 [Compound 119],–
2.14,CCN(C)C=Nc1ccc(-c2ccc(Cl)c(C)c2)cc1C [Compound 108],–
2.18,CCN(C)C=Nc1cc(C)c(-c2ccc(Cl)cc2)cc1C [Compound 125],–
2.69,Cc1cc(-c2ccc(C(C)(C)C)cc2)c(C)cc1N=CN1CCCCC1 [Compound 116],–
2.18,CCN(C)C=Nc1cc(C)c(-c2ccc(OC(C)C)cc2)cc1C [Compound 170],–
1.54,CCN(C)C=Nc1cc(C)c(-c2ccc(C#N)cc2)cc1C [Compound 136],–
1.72,Cc1cc(-c2ccc(F)cc2)c(C)cc1N=C1NCCN1 [Compound 124],–
